Data: patent US8138191B2, “Inhibitor compounds and cancer treatment methods” (Critical Outcome Technologies Inc., priority 2007, dated 2012)

Columns and labels:
[1] = system: SHP77 cells; assay: Western blots of cellular lysates of SHP77 cells treated with COTI-2; assay type: cell-based, human; settings: 250 nM
Protocol: To confirm this mechanism SHP77 cells were treated with 250 nM of COTI-2 and incubated for 3 and 6 hours. Phospho-Akt expression was decreased as compared to control at both 3 and 6 hours, with corresponding increases in Akt levels.

[2] = system: DMS114 cells; assay: Proliferation with anti-cancer agents plus COTI-2, DMS114; assay type: cell-based, human
[3] = system: MCF-7 cells; assay: Sensitivity to COTI-2 after PTEN siRNA knockdown (alamar Blue), MCF-7; assay type: cell-based, human; settings: MCF-7, 48 h post-transfection
Protocol: Briefly, HeLa and MCF-7 cells were transfected with 100 nM PTEN siRNA or control non-targeted siRNA at 48 or 144 h prior to exposure to various concentrations of COTI-2.
To assess the capacity of transient siRNA transfection to alter the ability of cells to proliferate in the presence or absence of COTI-2, HeLa or MCF-7 cells (both PTEN-positive) were plated in T25 flasks and transfected 24 h later with PTEN siRNA or non-targeting control siRNA (100 nM in both cases), using Oligofectamine Reagent (Invitrogen) according to the manufacturer's instructions and as previously described (J Pharmacol Exp Ther, 322:123-132). […] PTEN and 18S rRNA mRNA levels were determined by semi-quantitative reverse transcription PCR. […]
For determination of drug sensitivity, HeLa and MCF-7 cells (transfected with PTEN siRNA or control, non-targeted siRNA 48 or 144 hours prior) were re-plated in 96-well plates (VWR, Mississauga, ON, Canada) at 1700 (MCF-7) and 1200 (HeLa) cells per well in a volume of 100 μl of DMEM+10% FBS. […] Cells were then grown for 4 days, and viable cell numbers were assessed by the alamar Blue fluorescence assay using a Wallac Victor^2 multilabel counter (PerkinElmer Wallac, Gaithersburg, Md.). […]

[4] = in vitro; settings: human
Protocol: (§1) TC7 cells were seeded at 1×10^5 cells/cm^2 on porous polycarbonate membrane in 96-well Multiscreen™ plates (Millipore). Cells were fed every 2 to 3 days and the day before the permeability assay. Permeability assays are performed with the cells at days 13-25 post-seeding. The assay directions included apical to basolateral (A-B) and basolateral to apical (B-A). The working solution for COTI-2 was prepared at 10 μM in HBSS-MES (5 mM), pH 6.5, or HBSS-HEPES (5 mM), pH 7.4, from a 1 mM DMSO stock solution. The working solution was then centrifuged and the supernatant was added to the apical or basolateral side with a final DMSO concentration of 1%. The assay was incubated for 60 or 40 min with gentle shaking at 37° C. The sampling scheme consisted of donor time zero, donor time 60 or 40 min, and receiver time 60 or 40 min. Samples were analyzed via (RP)HPLC-MS/MS using selected reaction monitoring (SRM). […] The cell monolayer integrity was confirmed by fluorescein permeability assessment (in the A-B direction at pH 7.4 on both sides with 1 h incubation) after the permeability assay with COTI-2. The cell monolayer that has a fluorescein permeability of less than 0.5×10^−6 cm/s was considered intact. The apparent permeability coefficient (Papp) of COTI-2 in the […] and the percent recovery of the compounds were calculated.

[5] = system: TC7 (human intestinal epithelial cells); assay: in vitro
Protocol: as §1

[6] = biological target: T1, CYP2B6 (Homo sapiens, UniProt P20813); assay: in vitro; settings: both
T1 sequence (P20813 1-491): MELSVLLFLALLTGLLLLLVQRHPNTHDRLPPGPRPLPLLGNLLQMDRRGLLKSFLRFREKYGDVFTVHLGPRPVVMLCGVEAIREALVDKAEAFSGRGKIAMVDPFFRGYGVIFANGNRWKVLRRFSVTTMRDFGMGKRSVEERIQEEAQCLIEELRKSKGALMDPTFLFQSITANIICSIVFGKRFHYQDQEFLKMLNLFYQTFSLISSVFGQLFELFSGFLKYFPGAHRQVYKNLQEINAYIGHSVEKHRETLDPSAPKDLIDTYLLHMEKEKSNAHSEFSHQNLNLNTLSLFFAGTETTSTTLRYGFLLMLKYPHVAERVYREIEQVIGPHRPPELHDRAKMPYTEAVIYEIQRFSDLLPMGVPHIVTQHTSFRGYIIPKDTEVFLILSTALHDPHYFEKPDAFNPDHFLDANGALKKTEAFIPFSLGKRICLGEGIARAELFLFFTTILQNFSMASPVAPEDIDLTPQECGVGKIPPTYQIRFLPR

[7] = system: Akt kinase activity in DMS-114 cells; assay: Akt kinase activity (immunoprecipitated Akt, GSK-3 phosphorylation), DMS-114; settings: DMS-114, 250 nM, 8 hrs
[8] = Caco-2, pH 7.4, Permeability Mean

For S=C(N/N=C1/CCCc2cccnc21)N1CCN(c2ccccn2)CC1 [COTI-2], which “Caspase 8 level of expression” value [1] is on record?
The value was “remained constant”.

And the phospho-STAT3 expression [1]?
The phospho-STAT3 expression was “no change”.

And the Phospho-Akt expression ([1]; 3 and 6 hours)?
The Phospho-Akt expression was “decreased”.

What about the “phospho-Caspase 9” value ([1]; 3 and 6 hrs) of the same molecule?
Its value is “profound suppression”.

And the “decrease in total STAT3” value ([1]; 6 hrs)?
Its value is ~30%.

And the “reduction of proliferation as a single agent” value ([2]; DMS114, 31 nM)?
Its value is 25%.

And the “reduction of proliferation as a single agent” value ([2]; DMS114, 73 nM)?
Its value is 25%.

And the “resistance to COTI-2 after PTEN siRNA transfection” value [3]?
The value was “significant increase in the resistance”.

And the efflux ratio at 10 µM ([4]; Caco-2)?
The efflux ratio at 10 µM was ~4.5.

And the Papp A→B at 10 µM ([4]; Caco-2, A-B permeability (Papp))?
The Papp A→B at 10 µM was < 0.3 ×10⁻⁶ cm/s.

And the recovery at 10 µM ([4]; Caco-2, mean recovery)?
The recovery at 10 µM was 22%.

And the Papp A→B at 10 µM [4, 8]?
Its Papp A→B at 10 µM is < 0.3 ×10⁻⁶ cm/s.

And the Papp B→A at 10 µM [4, 8]?
The Papp B→A at 10 µM was 1.4 ×10⁻⁶ cm/s.

And the Pgp substrate assessment ([5]; Caco-2)?
Its Pgp substrate assessment is “not a substrate of Pgp”.

What about the Flags ([5]; Caco-2, pH 7.4) of the same molecule?
The Flags was “BLQ”.

And the inhibition at 15 min, 10 µM ([6]; human liver microsomes, pH 7.4, probe bupropion (10 µM))?
The inhibition at 15 min, 10 µM was 5%.

What about the inhibition at 15 min, 10 µM ([6]; liver microsomes, pH 7.4, probe bupropion) of the same molecule?
The inhibition at 15 min, 10 µM was < 50%.

And the Akt kinase activity [7]?
The Akt kinase activity was “below the threshold for measurement”.
